Reference: patent US10987359B2, “Oxadiazepinone derivatives and methods of treating hepatitis B infections” (priority 2016, dated 2021)
Where two headings read alike, the source gives them in different places.

Test system: HBV
Test: HBV replication inhibition assay (BDNA assay) in HepG2.2.15 cells
Type: cell-based
Settings: HepG2.2.15 cells, read-out: DNA EC50
Outline: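 Supernatant encapsidated HBV DNA was measured by bDNA after DNase digestion and proteinase K release. Stably HBV-integrated HepG2.2.15 cells had two 3-day compound exposures (0.5% DMSO). Signals were background-subtracted and normalized to DMSO wells, and EC50 was obtained by four-parameter fit.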

[1] = Hepatitis B virus, HepG2.2.15, HBV replication assay (BDNA assay)
[2] = HBV replication assay (BDNA assay)

Row | Structure (SMILES) | EC50 [1] [nM] | EC50 [2] [nM]
1 | CN1O[C@@H](C[S@@+](C)[O-])Cn2nc3c(c2C1=O)CN(C(=O)Nc1ccc(F)c(Cl)c1)CC3 (stereo in doubt) [Compound 049_E3, (R*)—N-(3-chloro-4-fluorophenyl)-2-methyl-4-(((R*)-methylsulfinyl)methyl)-1-oxo-1,4,5,8,9,11-hexahydropyrido[4′,3′:3,4]pyrazolo[5,1-d][1,2,5]oxadiazepine-10(2H)-carboxamide] | 1 to 100 | 
2 | CN1O[C@@H](C[S@+](C)[O-])Cn2nc3c(c2C1=O)CN(C(=O)Nc1ccc(F)c(Cl)c1)CC3 (stereo in doubt) [Compound 049_E4, (R*)—N-(3-chloro-4-fluorophenyl)-2-methyl-4-(((S*)-methylsulfinyl)methyl)-1-oxo-1,4,5,8,9,11-hexahydropyrido[4′,3′:3,4]pyrazolo[5,1-d][1,2,5]oxadiazepine-10(2H)-carboxamide] | 100 to 500 | 
3 | C[C@H]1Cc2nn3c(c2CN1C(=O)Nc1ccc(F)c(Cl)c1)C(=O)N(C)O[C@H](CO)C3 (stereo in doubt) [Compound 069_E1, (4S*,9S*)—N-(3-chloro-4-fluorophenyl)-4-(hydroxymethyl)-2,9-dimethyl-1-oxo-1,4,5,8,9,11-hexahydropyrido[4′,3′:3,4]pyrazolo[5,1-d][1,2,5]oxadiazepine-10(2H)-carboxamide] | 1 to 100 | 
4 | C[C@H]1Cc2nn3c(c2CN1C(=O)Nc1ccc(F)c(Cl)c1)C(=O)N(C)O[C@@H](CO)C3 (stereo in doubt) [Compound 069_E2, (4R*,9S*)—N-(3-chloro-4-fluorophenyl)-4-(hydroxymethyl)-2,9-dimethyl-1-oxo-1,4,5,8,9,11-hexahydropyrido[4′,3′:3,4]pyrazolo[5,1-d][1,2,5]oxadiazepine-10(2H)-carboxamide] | 1 to 100 | 
5 | C[C@@H]1Cc2nn3c(c2CN1C(=O)Nc1ccc(F)c(Cl)c1)C(=O)N(C)O[C@@H](CO)C3 (stereo in doubt) [Compound 069_E3, (4R*,9R*)—N-(3-chloro-4-fluorophenyl)-4-(hydroxymethyl)-2,9-dimethyl-1-oxo-1,4,5,8,9,11-hexahydropyrido[4′,3′:3,4]pyrazolo[5,1-d][1,2,5]oxadiazepine-10(2H)-carboxamide] | 100 to 500 | 
6 | C[C@@H]1Cc2nn3c(c2CN1C(=O)Nc1ccc(F)c(Cl)c1)C(=O)N(C)O[C@H](CO)C3 (stereo in doubt) [Compound 069_E4, (4S*,9R*)—N-(3-chloro-4-fluorophenyl)-4-(hydroxymethyl)-2,9-dimethyl-1-oxo-1,4,5,8,9,11-hexahydropyrido[4′,3′:3,4]pyrazolo[5,1-d][1,2,5]oxadiazepine-10(2H)-carboxamide] | 1 to 100 | 
7 | C[C@@H]1Cc2nn3c(c2CN1C(=O)Nc1ccc(F)c(C(F)(F)F)c1)C(=O)N(C)OC(CO)C3 (stereo in doubt) [Compound 082_E1, (4S*,9R)—N-(4-fluoro-3-(trifluoromethyl)phenyl)-4-(hydroxymethyl)-2,9-dimethyl-1-oxo-1,4,5,8,9,11-hexahydropyrido[4′,3′:3,4]pyrazolo[5,1-d][1,2,5]oxadiazepine-10(2H)-carboxamide] | 1 to 100 | 
8 | C[C@@H]1Cc2nn3c(c2CN1C(=O)Nc1ccc(F)c(C(F)(F)F)c1)C(=O)N(C)OC(CO)C3 (stereo in doubt) [Compound 082_E2, (4R*,9R)—N-(4-fluoro-3-(trifluoromethyl)phenyl)-4-(hydroxymethyl)-2,9-dimethyl-1-oxo-1,4,5,8,9,11-hexahydropyrido[4′,3′:3,4]pyrazolo[5,1-d][1,2,5]oxadiazepine-10(2H)-carboxamide] |  | 1 to 100
9 | C[C@@H]1Cc2nn3c(c2CN1C(=O)Nc1ccc(F)c(C#N)c1)C(=O)N(C)OC(CO)C3 (stereo in doubt) [Compound 084_E1, (4S*,9R)—N-(3-cyano-4-fluorophenyl)-4-(hydroxymethyl)-2,9-dimethyl-1-oxo-1,4,5,8,9,11-hexahydropyrido[4′,3′:3,4]pyrazolo [5,1-d][1,2,5]oxadiazepine-10(2H)-carboxamide] | 1 to 100 | 
10 | C[C@@H]1Cc2nn3c(c2CN1C(=O)Nc1ccc(F)c(C#N)c1)C(=O)N(C)OC(CO)C3 (stereo in doubt) [Compound 084_E2, (4R*,9R)—N-(3-cyano-4-fluorophenyl)-4-(hydroxymethyl)-2,9-dimethyl-1-oxo-1,4,5,8,9,11-hexahydropyrido[4′,3′:3,4]pyrazolo [5,1-d][1,2,5]oxadiazepine-10(2H)-carboxamide] |  | 1 to 100
11 | C[C@@H]1Cc2nn3c(c2CN1C(=O)Nc1ccc(F)c(C(F)(F)F)c1)C(=O)N(C)OC(CF)C3 (stereo in doubt) [Compound 085_E1, (4S*,9R)—N-(4-fluoro-3-(trifluoromethyl)phenyl)-4-(fluoromethyl)-2,9-dimethyl-1-oxo-1,4,5,8,9,11-hexahydropyrido[4′,3′:3,4]pyrazolo[5,1-d][1,2,5]oxadiazepine-10(2H)-carboxamide] | 1 to 100 | 
12 | C[C@@H]1Cc2nn3c(c2CN1C(=O)Nc1ccc(F)c(C(F)(F)F)c1)C(=O)N(C)OC(CF)C3 (stereo in doubt) [Compound 085_E2, (4R*,9R)—N-(4-fluoro-3-(trifluoromethyl)phenyl)-4-(fluoromethyl)-2,9-dimethyl-1-oxo-1,4,5,8,9,11-hexahydropyrido[4′,3′:3,4]pyrazolo[5,1-d][1,2,5]oxadiazepine-10(2H)-carboxamide] |  | 1 to 100
13 | Cc1cc(NC(=O)N2Cc3c(nn4c3C(=O)N(C)OC(CF)C4)C[C@H]2C)ccc1F (stereo in doubt) [Compound 086_E1, (4S*,9R)—N-(4-fluoro-3-methylphenyl)-4-(fluoromethyl)-2,9-dimethyl-1-oxo-1,4,5,8,9,11-hexahydropyrido[4′,3′:3,4]pyrazolo[5,1-d][1,2,5]oxadiazepine-10(2H)-carboxamide] | 1 to 100 | 
14 | Cc1cc(NC(=O)N2Cc3c(nn4c3C(=O)N(C)OC(CF)C4)C[C@H]2C)ccc1F (stereo in doubt) [Compound 086_E2, (4R*,9R)—N-(4-fluoro-3-methylphenyl)-4-(fluoromethyl)-2,9-dimethyl-1-oxo-1,4,5,8,9,11-hexahydropyrido[4′,3′:3,4]pyrazolo[5,1-d][1,2,5]oxadiazepine-10(2H)-carboxamide] |  | 1 to 100
15 | C[C@@H]1Cc2nn3c(c2CN1C(=O)Nc1ccc(F)c(C#N)c1)C(=O)N(C)OC(CF)C3 (stereo in doubt) [Compound 087_E1, (4S*,9R)—N-(3-cyano-4-fluorophenyl)-4-(fluoromethyl)-2,9-dimethyl-1-oxo-1,4,5,8,9,11-hexahydropyrido[4′,3′:3,4]pyrazolo[5,1-d][1,2,5]oxadiazepine-10(2H)-carboxamide] | 1 to 100 | 
16 | C[C@@H]1Cc2nn3c(c2CN1C(=O)Nc1ccc(F)c(C#N)c1)C(=O)N(C)OC(CF)C3 (stereo in doubt) [Compound 087_E2, (4R*,9R)—N-(3-cyano-4-fluorophenyl)-4-(fluoromethyl)-2,9-dimethyl-1-oxo-1,4,5,8,9,11-hexahydropyrido[4′,3′:3,4]pyrazolo[5,1-d][1,2,5]oxadiazepine-10(2H)-carboxamide] |  | 1 to 100
17 | C[C@@H]1Cc2nn3c(c2CN1C(=O)Nc1cc(Br)c(F)cc1F)C(=O)N(C)OC(CO)C3 (stereo in doubt) [Compound 089_E1, (4S*,9R)—N-(5-bromo-2,4-difluorophenyl)-4-(hydroxymethyl)-2,9-dimethyl-1-oxo-1,4,5,8,9,11-hexahydropyrido[4′,3′:3,4]pyrazolo[5,1-d][1,2,5]oxadiazepine-10(2H)-carboxamide] | 1 to 100 | 
18 | C[C@@H]1Cc2nn3c(c2CN1C(=O)Nc1cc(Br)c(F)cc1F)C(=O)N(C)OC(CO)C3 (stereo in doubt) [Compound 089_E2, (4R*,9R)—N-(5-bromo-2,4-difluorophenyl)-4-(hydroxymethyl)-2,9-dimethyl-1-oxo-1,4,5,8,9,11-hexahydropyrido[4′,3′:3,4]pyrazolo[5,1-d][1,2,5]oxadiazepine-10(2H)-carboxamide] |  | 1 to 100
19 | C[C@@H]1Cc2nn3c(c2CN1C(=O)Nc1cc(Cl)c(F)cc1F)C(=O)N(C)OC(CO)C3 (stereo in doubt) [Compound 090_E1, (4S*,9R)—N-(5-chloro-2,4-difluorophenyl)-4-(hydroxymethyl)-2,9-dimethyl-1-oxo-1,4,5,8,9,11-hexahydropyrido[4′,3′:3,4]pyrazolo[5,1-d][1,2,5]oxadiazepine-10(2H)-carboxamide] | 1 to 100 | 
20 | C[C@@H]1Cc2nn3c(c2CN1C(=O)Nc1cc(Cl)c(F)cc1F)C(=O)N(C)OC(CO)C3 (stereo in doubt) [Compound 090_E2, (4R*,9R)—N-(5-chloro-2,4-difluorophenyl)-4-(hydroxymethyl)-2,9-dimethyl-1-oxo-1,4,5,8,9,11-hexahydropyrido[4′,3′:3,4]pyrazolo[5,1-d][1,2,5]oxadiazepine-10(2H)-carboxamide] |  | 1 to 100
21 | C[C@@H]1Cc2nn3c(c2CN1C(=O)Nc1ccc(F)c(Cl)c1F)C(=O)N(C)OC(CO)C3 (stereo in doubt) [Compound 091_E1, (4S*,9R)—N-(3-chloro-2,4-difluorophenyl)-4-(hydroxymethyl)-2,9-dimethyl-1-oxo-1,4,5,8,9,11-hexahydropyrido[4′,3′:3,4]pyrazolo[5,1-d][1,2,5]oxadiazepine-10(2H)-carboxamide] | 1 to 100 | 
22 | C[C@@H]1Cc2nn3c(c2CN1C(=O)Nc1ccc(F)c(Cl)c1F)C(=O)N(C)OC(CO)C3 (stereo in doubt) [Compound 091_E2, (4R*,9R)—N-(3-chloro-2,4-difluorophenyl)-4-(hydroxymethyl)-2,9-dimethyl-1-oxo-1,4,5,8,9,11-hexahydropyrido[4′,3′:3,4]pyrazolo[5,1-d][1,2,5]oxadiazepine-10(2H)-carboxamide] |  | 1 to 100
23 | C[C@@H]1Cc2nn3c(c2CN1C(=O)Nc1ccc(F)c(Cl)c1)C(=O)N(C)OC(CN(C)C)C3 (stereo in doubt) [Compound 093_D2, (4R*,9R)—N-(3-chloro-4-fluorophenyl)-4-((dimethylamino)methyl)-2,9-dimethyl-1-oxo-1,4,5,8,9,11-hexahydropyrido[4′,3′:3,4]pyrazolo[5,1-d][1,2,5]oxadiazepine-10(2H)-carboxamide] | 1 to 100 | 
